From patent US20040259772A1, “Use of a histone deacetylase inhibitor to increase the entry of an adenoviral agent into a cell” (priority 2001, published 2004)

Columns and labels:
K562 cells = assay: Adenoviral β-galactosidase transgene expression in K562; assay type: cell-based, human; conditions: pre-treated 1 ng/ml for 24 hr, moi=50, incubation less than 1 hr
Source text: (§1) […] […] Adenovirus transgene expression was compared using the β-Gal Staining Kit (Invitrogen, Carlsbad, Calif.) and β-gal positive cells were counted from three non-overlapping fields.

[1] = test system: human cancer cell lines FTC 236, SW-1736, SW620, A498, MCF7, HepG2; assay: Transduction efficiency by Ad-βgal (β-gal positive cells), six cancer cell lines; assay type: cell-based; conditions: 72 hrs with 1 ng/ml depsipeptide
Experimental: A total of 6 human cancer cell lines were tested: a follicular thyroid carcinoma (FTC 236) (Demeure et al., World J. Surg. 16:770-776 (1992)); an anaplastic thyroid carcinoma (SW-1736) (Ain et al., J. Clin. Endocrinol. Metab. 81:3650-3653 (1996)); a colon carcinoma (SW620) (Leibovitz et al., Cancer Res. 36:4562-4569 (1976)); a renal cell carcinoma (A498) (Giard et al., J. Natl. Cancer Inst. 51:1417-1423 (1973)); a breast carcinoma (MCF7) (Soule et al., J. Natl. Cancer Inst. 51:1409-1413 (1973)); and a hepatocarcinoma (HepG2) (Knowles et al., Science 209:497-499 (1980)).
The Ad5.CMV-LacZ is an E1 and E3 gene deleted replication defective type 5 adenovirus obtained from Qbiogene (Carlsbad, Calif.). It was grown in 293A cells according to protocols supplied by the company. The AdCMVβgal virus was purified and the titer was determined by the TCID50 assay as described by the manufacturer.
(§2) 10^4 untreated cells or 10^4 cells pre-treated with 1 ng/ml depsipeptide for 72 hrs were plated on a round cover glass (DAIGGER, Vernon Hills, Ill.) in 24 well plates. Cells were transduced with 100 MOI of Ad-βgal in medium without serum for 1 hr and maintained with serum-containing medium for 48 hrs after transduction. Adenovirus transgene expression was compared using the β-Gal Staining Kit (Invitrogen, Carlsbad, Calif.) and β-gal positive cells were counted from three non-overlapping fields.

[2] = test system: coxsackie-adenovirus receptor (CAR); assay: RT-PCR analysis of CAR RNA levels in cultured cells; assay type: cell-based, human; conditions: for level of CAR (RT-PCR), compared with K562: less than 3 ng/ml; for level of CAR (RT-PCR): HUVEC
Experimental: RT-PCR for CAR and integrin αv was performed using total RNA extracted with the RNeasy Mini Kit (Qiagen, Valencia, Calif.). Single-stranded oligo(dt)-primed cDNA was generated from 1 μg of RNA in a 20 μl reaction using MMLV reverse transcriptase (Life Technologies, Eggenstein, Germany). Oligonucleotide primers used for analysis of human CAR (Bergelson et al., supra) and αv integrin (Suzuki et al., Proc. Natl. Acad. Sci. U.S.A. 83:8614-8618 (1986)) RNA expression were:
(§3) These primers generated products that were 631 bp (CAR) and 490 bp (αv integrin) in length. The amplification reaction was carried out with 1 μg of the cDNA product for 30 cycles, and each cycle consisted of 94° C for 20 sec, 64° C. for 30 sec and 72° C. for 1 min, followed by a final 10 min elongation at 72° C. Comparability of RNA quantities was assured using β-actin as an internal standard. Oligonulceotide primers for human β-actin RNA amplification were: […]

[3] = test system: CD34+ selected peripheral blood stem cells (PBSCs); assay: Adenoviral β-galactosidase transgene expression in CD34+ PBSCs; assay type: cell-based; conditions: pre-treated 0.1 ng/ml for 24 hr, moi=10, incubation less than 1 hr
Source text: as §1

CAR = CAR expression in PBMNCs of a Phase I depsipeptide patient; assay type: in vivo, human
Source text: (§4) In addition to the above, PBMNCs were obtained from a patient enrolled in a Phase I depsipeptide (FR901228) study (concentrations used with cultured cells are within the range administered to patients) and examined.

αv integrin = assay: RT-PCR analysis of αv integrin RNA levels in cultured cells; assay type: cell-based, human
Experimental: RT-PCR for CAR and integrin αv was performed using total RNA extracted with the RNeasy Mini Kit (Qiagen, Valencia, Calif.). Single-stranded oligo(dt)-primed cDNA was generated from 1 μg of RNA in a 20 μl reaction using MMLV reverse transcriptase (Life Technologies, Eggenstein, Germany).
as §3, with “The” for “These primers generated products that were 631 bp (CAR) and 490 bp (αv integrin) in length. The”

[4] = test system: A498, MCF7 and HepG2 cancerous cell lines; assay: β-galactosidase expression upon AdCMVβgal infection, cancerous cell lines (Example 4); assay type: cell-based, human
Experimental: as §2
A498, MCF7 and HepG2 cancerous cell lines and normal cells (Clonetics, Walkersville, Md.) were treated with FR901228. […] Induction of CAR was only observed in normal cells at 10-20 ng/ml FR901228 and then only a two-fold increase in CAR was observed.

acetylated histone H3 [5] = assay: Acetylated histone H3 in PBMNCs of a Phase I depsipeptide patient; assay type: in vivo, human; conditions: after administration of depsipeptide
Source text: as §4

[6] = test system: G-CSF-mobilized peripheral blood mononuclear cells (PBMNCs); assay: Adenoviral β-galactosidase transgene expression in PBMNCs; assay type: cell-based; conditions: pre-treated 0.1 ng/ml for 24 hr, moi=10, incubation less than 1 hr
Source text: as §1

histone H3 = assay: Western blot analysis of total histone H3; assay type: cell-based, human
Experimental: (§5) Supernatants were collected as nuclear extracts. Ten lag of protein were separated on an 11% SDS-PAGE gel, and electroblotting to Immobilon™-P transfer membrane (Millipore, Bedford, Mass.) was performed. The membrane was incubated for 30 min with either a rabbit polyclonal antibody against acetylated histone H3 (Upstate Biotechnology, Lake Placid, N.Y.) or a rabbit polyclonal antibody against histone H3 (Upstate Biotechnology, Lake Placid, N.Y.) diluted 1:2000 in 5% milk. After washing, anti-rabbit Ig horseradish peroxidase-linked secondary antibody (Amersham Pharmacia Biotech, Piscataway, N.J.) was added and incubated for 30 min. After washing, the membrane was developed in ECL™ Western blotting detection reagents (Amersham Pharmacia Biotech, Piscataway, N.J.).

[7] = test system: human umbilical vein endothelial cells (HUVEC); assay: Adenoviral β-galactosidase transgene expression in HUVEC; assay type: cell-based; conditions: HUVEC treated with 0.3 ng/ml for 48 hr prior to adenoviral infection
Source text: as §2, with “10^4 untreated cells or 10^4 cells pre-treated with 1 ng/ml depsipeptide for 72 hrs were plated on a round cover glass (DAIGGER, Vernon Hills, Ill.) in 24 well plates.” left out

acetylated histone H3 [8] = assay: Western blot analysis of acetylated histone H3; assay type: cell-based, human
Experimental: as §5, with “Ten lag of protein were separated on an 11% SDS-PAGE gel, and electroblotting to Immobilon™-P transfer membrane (Millipore, Bedford, Mass.) was performed.” left out

[9] = 1 ng/ml depsipeptide for 72 hrs, all six human cancer cell lines
[10] = A498, MCF7, HepG2 cancerous cells, 1 ng/ml

C/C=C1\NC(=O)[C@H]2CSSCC/C=C/[C@H](CC(=O)N[C@H](C(C)C)C(=O)N2)OC(=O)[C@H](C(C)C)NC1=O [FR901228]
cells expressing β-galactosidase (K562 cells): more than 80%
cells expressing β-galactosidase ([1]; then adenovirus with CMV-β-galactosidase, six cancer cell lines): 72-88%
frequency of expression of the β-galactosidase transgene ([1]; all cell lines): marked increases
expression of endogenous CAR [2, 9]: increased expression
CAR expression [2, 10]: increased CAR expression in cancerous cells to levels higher than those found in normal cells
level of CAR (RT-PCR), compared with K562 ([2]; CD34+ selected PBSCs): Comparable levels of CAR
level of CAR (RT-PCR), compared with K562 ([2]; G-CSF-mobilized PBMNCs): Comparable levels of CAR
level of CAR (RT-PCR) ([2]; 0.3 ng/ml for 48 hr): increased the level of CAR significantly
increase in level of CAR (RT-PCR) ([2]; K562 cells, 1 ng/ml): about 3 fold
concentration at which induction of CAR was observed ([2]; normal cells (Clonetics)): 10 to 20 ng/mL
increase in CAR ([2]; normal cells, 10-20 ng/ml): two-fold
cells expressing β-galactosidase [3]: more than 80%
CAR expression in patient PBMNCs (CAR; after completion of a 4 hr depsipeptide infusion): increase
CAR expression in patient PBMNCs (CAR; at 24 hr of depsipeptide infusion): further increase
expression of endogenous αv integrin (αv integrin; [9]): increased expression
levels of αv integrins (αv integrin; [10]): increased from undetectable to a level similar to that found in untreated normal cells
levels of αv integrins (printed 'o integrins') (αv integrin; normal cells treated in the same manner): little increase
cancerous cells expressing β-galactosidase ([4]; A498, MCF7, HepG2 following FR901228 treatment): 75-85%
increase in β-galactosidase expression upon infection ([4]; all cancerous cell lines (A498, MCF7, HepG2) following FR901228 treatment): 4-10 fold
level of acetylated histone H3 in patient PBMNCs (acetylated histone H3 [5]): increased
cells expressing β-galactosidase [6]: more than 80%
level of histone H3 (histone H3; HUVEC): not altering the level of histone H3
total histone H3 levels (histone H3; K562 cells and CD34+ PBSCs): No significant change
cells expressing the β-galactosidase transgene [7]: over 80%
histone acetylation (acetylated histone H3 [8]; 1 ng/ml depsipeptide, cancer cell lines of Example 1): marked increase
level of acetylated histone H3 (acetylated histone H3 [8]; CD34+ PBSCs): increased the level of acetylated histone H3 substantially
level of acetylated histone H3 (acetylated histone H3 [8]; HUVEC): increased the level of acetylated histone H3 substantially
level of acetylated histone H3 (acetylated histone H3 [8]; K562 cells): increased the level of acetylated histone H3 substantially
histone acetylation (acetylated histone H3 [8]; cancerous cells, 1 ng/ml): increased histone acetylation
concentration required to increase histone acetylation (acetylated histone H3 [8]; normal cells, compared with cancerous cells): higher concentration

CCCC(=O)[O-].[Na+] [sodium butyrate]
level of CAR (RT-PCR) ([2]; concentration not given): little effect

CC(/C=C/C(=O)NO)=C\[C@@H](C)C(=O)c1ccc(N(C)C)cc1 [trichostatin A]
level of CAR (RT-PCR) ([2]; concentration not given): increased the level of CAR slightly
